Measurements: the CheMixHub viscosity set

Test: xn = mol fraction of the nth substance listed

O=Cc1ccccc1 + CCc1ccccc1
viscosity [mPa·s], 101 kPa
Conditions	x1 = 0.1197	x1 = 0.2343	x1 = 0.3441	x1 = 0.4494	x1 = 0.5504	x1 = 0.6474	x1 = 0.7407	x1 = 0.8304	x1 = 0.9168
303.15 K	0.6517	0.704	0.7588	0.8174	0.882	0.9577	1.043	1.13	1.203
308.15 K	0.6199	0.6713	0.7283	0.7882	0.8554	0.93	1.014	1.102	1.181
313.15 K	0.584	0.6318	0.691	0.7573	0.8273	0.9007	0.9837	1.07	1.158

CC(O)C(C)O (stereo not given) + CN1CCCC1=O
308.15 K, 101 kPa
Conditions	viscosity [mPa·s]
x1 = 0.0282	1.924
x1 = 0.0534	2.003
x1 = 0.1001	2.405
x1 = 0.1968	2.91
x1 = 0.295	3.344
x1 = 0.3939	4.159
x1 = 0.4746	5.033
x1 = 0.5881	7.256
x1 = 0.6924	8.758
x1 = 0.7916	13.58
x1 = 0.8948	23.29
x1 = 0.9431	32.45
x1 = 0.973	39.91

CC(O)C(C)O (stereo not given) + CN(C)C=O
308.15 K, 101 kPa
Conditions	viscosity [mPa·s]
x1 = 0.0509	0.724
x1 = 0.1003	0.859
x1 = 0.1898	1.033
x1 = 0.2855	1.36
x1 = 0.3729	1.788
x1 = 0.4785	2.544
x1 = 0.5949	5.332
x1 = 0.6808	8.504
x1 = 0.7219	10.79
x1 = 0.8883	24.97
x1 = 0.942	34.78

C[N+](C)(C)CCO.[Cl-] + CN(CCO)CCO
viscosity [mPa·s], 101 kPa
Conditions	x1 = 0.091	x1 = 0.111	x1 = 0.143
293.15 K	54.54	126.3	139.8
313.15 K	20.45	40.89	46.55

Cc1ccc(C)cc1 + CO
viscosity [mPa·s], 101 kPa
Conditions	x1 = 0.0352	x1 = 0.0758	x1 = 0.1233	x1 = 0.1795	x1 = 0.247	x1 = 0.3298	x1 = 0.4336	x1 = 0.5673	x1 = 0.747
293.15 K	0.6087	0.6353	0.6635	0.6929	0.7227	0.7509	0.7731	0.7803	0.7526
298.15 K	0.5596	0.5732	0.5877	0.6031	0.6191	0.6348	0.6483	0.656	0.6489
308.15 K	0.4893	0.4993	0.5103	0.522	0.5342	0.5465	0.558	0.5669	0.5649
318.15 K	0.4296	0.4369	0.4449	0.4536	0.4628	0.4725	0.4823	0.4899	0.4933

O=C(O)CCC(=O)O + CO
viscosity [mPa·s], 101 kPa
Conditions	308.15 K	313.15 K	318.15 K	323.15 K
x1 = 0.04258	0.8055	0.7491	0.6981	0.646
x1 = 0.05573	0.9556	0.887	0.8175	0.7603

O=C(O)c1ccccc1C(=O)O + CO
viscosity [mPa·s]
Conditions	308.15 K	313.15 K	318.15 K	323.15 K
101 kPa, x1 = 0.0453	0.916	–	–	0.7018
101 kPa, x1 = 0.0538	1.001	–	–	0.79
101 kPa, x1 = 0.0598	1.085	–	–	0.8526
101 kPa, x1 = 0.0666	1.226	–	–	0.906
101.33 kPa, x1 = 0.0453	0.916	0.8445	0.777	0.718
101.33 kPa, x1 = 0.06	1.085	1.009	0.9326	0.8526

c1ccc(Nc2ccccc2)cc1 + CO
viscosity [mPa·s]
Conditions	298.15 K	303.15 K	308.15 K	313.15 K	318.15 K
101 kPa, x1 = 0.03649	0.814	0.739	0.6818	0.6313	0.584
101 kPa, x1 = 0.06942	1.012	0.9262	0.8495	0.7809	0.7151
101.33 kPa, x1 = 0.04	0.814	0.739	0.6818	0.6313	0.584
101.33 kPa, x1 = 0.0694	1.012	0.9262	0.8495	0.7809	0.7151

Cc1ccc(C)cc1 + COC(=O)OC
298.15 K, 101.3 kPa
Conditions	viscosity [mPa·s]
x2 = 0.1097	0.592
x2 = 0.1824	0.591
x2 = 0.2345	0.59
x2 = 0.2757	0.589
x2 = 0.3294	0.586
x2 = 0.3683	0.586
x2 = 0.5137	0.588
x2 = 0.6046	0.588
x2 = 0.7164	0.59
x2 = 0.8442	0.587

CCCCCCCCN + COCCO
308.15 K, 101 kPa
Conditions	viscosity [mPa·s]
x2 = 0.1894	1.275
x2 = 0.3445	1.474
x2 = 0.4739	1.614
x2 = 0.5835	1.667
x2 = 0.6777	1.67
x2 = 0.7592	1.609
x2 = 0.8307	1.556
x2 = 0.8937	1.482
x2 = 0.9498	1.379

OCCOCCO + COCCO
viscosity [mPa·s], 101 kPa
Conditions	293.15 K	298.15 K	303.15 K
x2 = 0.063	32.91	25.61	18.57
x2 = 0.1046	29.55	23.08	16.7
x2 = 0.1548	25.97	20.37	14.71
x2 = 0.1955	23.41	18.4	13.26
x2 = 0.2599	19.9	15.69	11.28
x2 = 0.3032	17.82	14.1	10.11
x2 = 0.3425	16.13	12.78	9.154
x2 = 0.3978	14.02	11.13	7.954
x2 = 0.4463	12.38	9.856	7.03
x2 = 0.4981	10.82	8.633	6.143
x2 = 0.5488	9.459	7.565	5.383
x2 = 0.5957	8.321	6.686	4.755
x2 = 0.6523	7.085	5.718	4.079
x2 = 0.6987	6.176	5.003	3.59
x2 = 0.7511	5.269	4.232	3.094
x2 = 0.8021	4.393	3.612	2.67
x2 = 0.8546	3.602	2.998	2.276
x2 = 0.8964	3.013	2.551	1.995
x2 = 0.9423	2.414	2.084	1.714

[Cl-].[Cl-].[Cl-].[Cl-].[Ge+4] + COc1ccccc1
viscosity [mPa·s], 101 kPa
Conditions	x2 = 0.2185	x2 = 0.3554	x2 = 0.4923	x2 = 0.6922	x2 = 0.8481
293.15 K	0.65	0.688	0.734	0.836	0.963
303.15 K	0.591	0.621	0.654	0.732	0.836
313.15 K	0.535	0.555	0.598	0.654	0.731

O=Cc1ccccc1 + CS(C)=O
viscosity [mPa·s], 101.33 kPa
Conditions	x2 = 0.1	x2 = 0.2	x2 = 0.3	x2 = 0.4	x2 = 0.5	x2 = 0.6	x2 = 0.7	x2 = 0.8	x2 = 0.9
298.15 K	1.443	1.51	1.562	1.62	1.679	1.739	1.801	1.864	1.938
308.15 K	1.22	1.266	1.314	1.362	1.411	1.461	1.51	1.56	1.609
318.15 K	1.066	1.101	1.135	1.17	1.207	1.243	1.28	1.317	1.354

OCCOCCO + CS(C)=O
308.15 K, 101 kPa
Conditions	viscosity [mPa·s]
x2 = 0.0978	16.69
x2 = 0.1794	15.85
x2 = 0.2569	14.94
x2 = 0.3945	13.49
x2 = 0.4797	12.36
x2 = 0.5804	10.83
x2 = 0.6748	8.995
x2 = 0.7945	6.227
x2 = 0.9146	3.442

[Cl-].[Cl-].[Cl-].[Cl-].[Ge+4] + CSC
293.15 K, 101 kPa
Conditions	viscosity [mPa·s]
x2 = 0.203	0.526
x2 = 0.3575	0.483
x2 = 0.4983	0.433
x2 = 0.6857	0.379
x2 = 0.8554	0.328

CCCC[N+](CCCC)(CCCC)CCCC.[Cl-] + CSCC[C@H](N)C(=O)O
Conditions	viscosity [mPa·s]
323.15 K, 101 kPa, x1 = 0.9	529

CCCC[N+](CCCC)(CCCC)CCCC.[Cl-] + C[C@@H](O)[C@H](N)C(=O)O
Conditions	viscosity [mPa·s]
313.15 K, 101 kPa, x1 = 0.9	633

CC(O)C(C)O (stereo not given) + C[N+](C)(C)CCO.[Cl-]
viscosity [mPa·s], 101.3 kPa
Conditions	303.15 K	308.15 K	313.15 K	318.15 K	323.15 K
x2 = 0.2	71.79	53.5	40.72	31.73	25.22
x2 = 0.25	84.88	63.93	48.73	38.16	30.43

OCCOCCO + C[N+](C)(C)CCO.[Cl-]
viscosity [mPa·s], 101 kPa
Conditions	293.15 K	298.15 K	303.15 K	313.15 K	323.15 K
x1 = 0.667	52.49	–	50.39	35.69	25.79
x2 = 0.25	–	55.1	–	–	–

O=Cc1ccccc1 + Cc1ccccc1
293.15 K, 100 kPa
Conditions	viscosity [mPa·s]
x1 = 0.1053	0.652
x1 = 0.2063	0.721
x1 = 0.2998	0.768
x1 = 0.4022	0.844
x1 = 0.4995	0.92
x1 = 0.6003	1.017
x1 = 0.6939	1.108
x1 = 0.8082	1.256
x1 = 0.9002	1.367
